Laboratory results as given in patent US7563592B2, “Alizarin-based chromogenic substrates, their uses and composition containing same” (Biomerieux, S.A., priority 1999, dated 2009).

Experiments:
Assay in all cases: Effect of metal salts on the color of the marker part, substrate 50 mg/l in Columbia medium (Example 3)
Format in all cases: cell-based
Listeria innocua 036 = test system: Listeria innocua 036
Procedure: (§1) To the Columbia-base medium (46.37 g/l) supplemented with Alizarin-2-β-D-glucoside (50 mg/l), were added either Manganese chloride, Ammoniacal iron citrate, Tin chloride, or Aluminum sulfate, all at a concentration of 50 mg/l. A control medium with no metal salts was tested in parallel. After autoclaving, these various media were all used to prepare Petri dishes (20 ml per plate). […] It should be pointed out that intensity readings are in arbitrary units. The only purpose of giving these values is to make it possible to compare one strain with another in this respect. The same is true for the examples which follow. Similarly, the strains tested were taken from the Applicant's collection and the number given represents an internal reference specific to this collection. The same internal numbering system is also used in some of the examples given later on.

Listeria innocua 077 = test system: Listeria innocua 077
Procedure: as §1

[1] = test system: Listeria monocytogenes 023
Procedure: as §1

[2] = test system: Listeria monocytogenes 079
Procedure: as §1

[3] = test system: Listeria monocytogenes 081
Procedure: as §1

Listeria seeligeri 011 = test system: Listeria seeligeri 011
Procedure: as §1

Listeria welshimeri 023 = test system: Listeria welshimeri 023
Procedure: as §1

[4] = Manganese chloride 50 mg/l, 24 H
[5] = Manganese chloride 50 mg/l, 48 H

**Q.** Which results are given for `O=C1c2ccccc2C(=O)c2c1ccc(O[C@@H]1O[C@H](CO)[C@@H](O)[C@H](O)[C@H]1O)c2O` [Alizarin-2-β-D-glucoside]?
**A.** Color (Listeria innocua 036; Aluminum sulfate 50 mg/l, 24 H): red; Intensity (Listeria innocua 036; Aluminum sulfate 50 mg/l, 24 H): 4 arbitrary units; Color (Listeria innocua 036; Aluminum sulfate 50 mg/l, 48 H): red; Intensity (Listeria innocua 036; Aluminum sulfate 50 mg/l, 48 H): 4 arbitrary units; Color (Listeria innocua 036; Control, no metal salt, 24 H): purple; Intensity (Listeria innocua 036; Control, no metal salt, 24 H): 2.3 arbitrary units; Color (Listeria innocua 036; Control, no metal salt, 48 H): purple; Intensity (Listeria innocua 036; Control, no metal salt, 48 H): 2.7 arbitrary units; Color (Listeria innocua 036; Iron citrate 50 mg/l, 24 H): purple; Intensity (Listeria innocua 036; Iron citrate 50 mg/l, 24 H): 4 arbitrary units; Color (Listeria innocua 036; Iron citrate 50 mg/l, 48 H): purple; Intensity (Listeria innocua 036; Iron citrate 50 mg/l, 48 H): 4 arbitrary units; Color (Listeria innocua 036; [4]): purple; Intensity (Listeria innocua 036; [4]): 2.3 arbitrary units; Color (Listeria innocua 036; [5]): purple; Intensity (Listeria innocua 036; [5]): 2.7 arbitrary units; Color (Listeria innocua 036; Tin chloride 50 mg/l, 24 H): orange; Intensity (Listeria innocua 036; Tin chloride 50 mg/l, 24 H): 3 arbitrary units; Color (Listeria innocua 036; Tin chloride 50 mg/l, 48 H): orange; Intensity (Listeria innocua 036; Tin chloride 50 mg/l, 48 H): 4 arbitrary units; Color (Listeria innocua 077; Aluminum sulfate 50 mg/l, 24 H): red; Intensity (Listeria innocua 077; Aluminum sulfate 50 mg/l, 24 H): 4 arbitrary units; Color (Listeria innocua 077; Aluminum sulfate 50 mg/l, 48 H): red; Intensity (Listeria innocua 077; Aluminum sulfate 50 mg/l, 48 H): 4 arbitrary units; Color (Listeria innocua 077; Control, no metal salt, 24 H): purple; Intensity (Listeria innocua 077; Control, no metal salt, 24 H): 2.3 arbitrary units; Color (Listeria innocua 077; Control, no metal salt, 48 H): purple; Intensity (Listeria innocua 077; Control, no metal salt, 48 H): 2.3 arbitrary units; Color (Listeria innocua 077; Iron citrate 50 mg/l, 24 H): purple; Intensity (Listeria innocua 077; Iron citrate 50 mg/l, 24 H): 4 arbitrary units; Color (Listeria innocua 077; Iron citrate 50 mg/l, 48 H): purple; Intensity (Listeria innocua 077; Iron citrate 50 mg/l, 48 H): 4 arbitrary units; Color (Listeria innocua 077; [4]): purple; Intensity (Listeria innocua 077; [4]): 2.3 arbitrary units; Color (Listeria innocua 077; [5]): purple; Intensity (Listeria innocua 077; [5]): 2.3 arbitrary units; Color (Listeria innocua 077; Tin chloride 50 mg/l, 24 H): orange; Intensity (Listeria innocua 077; Tin chloride 50 mg/l, 24 H): 3 arbitrary units; Color (Listeria innocua 077; Tin chloride 50 mg/l, 48 H): orange; Intensity (Listeria innocua 077; Tin chloride 50 mg/l, 48 H): 4 arbitrary units; Color ([1]; Aluminum sulfate 50 mg/l, 24 H): red; Intensity ([1]; Aluminum sulfate 50 mg/l, 24 H): 4 arbitrary units; Color ([1]; Aluminum sulfate 50 mg/l, 48 H): red; Intensity ([1]; Aluminum sulfate 50 mg/l, 48 H): 4 arbitrary units; Color ([1]; Control, no metal salt, 24 H): purple; Intensity ([1]; Control, no metal salt, 24 H): 2 arbitrary units; Color ([1]; Control, no metal salt, 48 H): purple; Intensity ([1]; Control, no metal salt, 48 H): 2 arbitrary units; Color ([1]; Iron citrate 50 mg/l, 24 H): purple; Intensity ([1]; Iron citrate 50 mg/l, 24 H): 4 arbitrary units; Color ([1]; Iron citrate 50 mg/l, 48 H): purple; Intensity ([1]; Iron citrate 50 mg/l, 48 H): 4 arbitrary units; Color [1, 4]: purple; Intensity [1, 4]: 2.7 arbitrary units; Color [1, 5]: purple; Intensity [1, 5]: 2.7 arbitrary units; Color ([1]; Tin chloride 50 mg/l, 24 H): orange; Intensity ([1]; Tin chloride 50 mg/l, 24 H): 3 arbitrary units; Color ([1]; Tin chloride 50 mg/l, 48 H): orange; Intensity ([1]; Tin chloride 50 mg/l, 48 H): 4 arbitrary units; Color ([2]; Aluminum sulfate 50 mg/l, 24 H): red; Intensity ([2]; Aluminum sulfate 50 mg/l, 24 H): 4 arbitrary units; Color ([2]; Aluminum sulfate 50 mg/l, 48 H): red; Intensity ([2]; Aluminum sulfate 50 mg/l, 48 H): 4 arbitrary units; Color ([2]; Control, no metal salt, 24 H): purple; Intensity ([2]; Control, no metal salt, 24 H): 2.3 arbitrary units; Color ([2]; Control, no metal salt, 48 H): purple; Intensity ([2]; Control, no metal salt, 48 H): 2.3 arbitrary units; Color ([2]; Iron citrate 50 mg/l, 24 H): purple; Intensity ([2]; Iron citrate 50 mg/l, 24 H): 4 arbitrary units; Color ([2]; Iron citrate 50 mg/l, 48 H): purple; Intensity ([2]; Iron citrate 50 mg/l, 48 H): 4 arbitrary units; Color [2, 4]: purple; Intensity [2, 4]: 2.7 arbitrary units; Color [2, 5]: purple; Intensity [2, 5]: 2.7 arbitrary units; Color ([2]; Tin chloride 50 mg/l, 24 H): orange; Intensity ([2]; Tin chloride 50 mg/l, 24 H): 3.5 arbitrary units; Color ([2]; Tin chloride 50 mg/l, 48 H): orange; Intensity ([2]; Tin chloride 50 mg/l, 48 H): 4 arbitrary units; Color ([3]; Aluminum sulfate 50 mg/l, 24 H): red; Intensity ([3]; Aluminum sulfate 50 mg/l, 24 H): 4 arbitrary units; Color ([3]; Aluminum sulfate 50 mg/l, 48 H): red; Intensity ([3]; Aluminum sulfate 50 mg/l, 48 H): 4 arbitrary units; Color ([3]; Control, no metal salt, 24 H): purple; Intensity ([3]; Control, no metal salt, 24 H): 2.3 arbitrary units; Color ([3]; Control, no metal salt, 48 H): purple; Intensity ([3]; Control, no metal salt, 48 H): 2.3 arbitrary units; Color ([3]; Iron citrate 50 mg/l, 24 H): purple; Intensity ([3]; Iron citrate 50 mg/l, 24 H): 4 arbitrary units; Color ([3]; Iron citrate 50 mg/l, 48 H): purple; Intensity ([3]; Iron citrate 50 mg/l, 48 H): 4 arbitrary units; Color [3, 4]: purple; Intensity [3, 4]: 2.3 arbitrary units; Color [3, 5]: purple; Intensity [3, 5]: 2.7 arbitrary units; Color ([3]; Tin chloride 50 mg/l, 24 H): orange; Intensity ([3]; Tin chloride 50 mg/l, 24 H): 3 arbitrary units; Color ([3]; Tin chloride 50 mg/l, 48 H): orange; Intensity ([3]; Tin chloride 50 mg/l, 48 H): 4 arbitrary units; Color (Listeria seeligeri 011; Aluminum sulfate 50 mg/l, 24 H): red; Intensity (Listeria seeligeri 011; Aluminum sulfate 50 mg/l, 24 H): 4 arbitrary units; Color (Listeria seeligeri 011; Aluminum sulfate 50 mg/l, 48 H): red; Intensity (Listeria seeligeri 011; Aluminum sulfate 50 mg/l, 48 H): 4 arbitrary units; Color (Listeria seeligeri 011; Control, no metal salt, 24 H): purple; Intensity (Listeria seeligeri 011; Control, no metal salt, 24 H): 2.3 arbitrary units; Color (Listeria seeligeri 011; Control, no metal salt, 48 H): purple; Intensity (Listeria seeligeri 011; Control, no metal salt, 48 H): 2.3 arbitrary units; Color (Listeria seeligeri 011; Iron citrate 50 mg/l, 24 H): purple; Intensity (Listeria seeligeri 011; Iron citrate 50 mg/l, 24 H): 4 arbitrary units; Color (Listeria seeligeri 011; Iron citrate 50 mg/l, 48 H): purple; Intensity (Listeria seeligeri 011; Iron citrate 50 mg/l, 48 H): 4 arbitrary units; Color (Listeria seeligeri 011; [4]): purple; Intensity (Listeria seeligeri 011; [4]): 2.7 arbitrary units; Color (Listeria seeligeri 011; [5]): purple; Intensity (Listeria seeligeri 011; [5]): 2.7 arbitrary units; Color (Listeria seeligeri 011; Tin chloride 50 mg/l, 24 H): orange; Intensity (Listeria seeligeri 011; Tin chloride 50 mg/l, 24 H): 3 arbitrary units; Color (Listeria seeligeri 011; Tin chloride 50 mg/l, 48 H): orange; Intensity (Listeria seeligeri 011; Tin chloride 50 mg/l, 48 H): 4 arbitrary units; Color (Listeria welshimeri 023; Aluminum sulfate 50 mg/l, 24 H): red; Intensity (Listeria welshimeri 023; Aluminum sulfate 50 mg/l, 24 H): 4 arbitrary units; Color (Listeria welshimeri 023; Aluminum sulfate 50 mg/l, 48 H): red; Intensity (Listeria welshimeri 023; Aluminum sulfate 50 mg/l, 48 H): 4 arbitrary units; Color (Listeria welshimeri 023; Control, no metal salt, 24 H): purple; Intensity (Listeria welshimeri 023; Control, no metal salt, 24 H): 2.3 arbitrary units; Color (Listeria welshimeri 023; Control, no metal salt, 48 H): purple; Intensity (Listeria welshimeri 023; Control, no metal salt, 48 H): 2.3 arbitrary units; Color (Listeria welshimeri 023; Iron citrate 50 mg/l, 24 H): purple; Intensity (Listeria welshimeri 023; Iron citrate 50 mg/l, 24 H): 4 arbitrary units; Color (Listeria welshimeri 023; Iron citrate 50 mg/l, 48 H): purple; Intensity (Listeria welshimeri 023; Iron citrate 50 mg/l, 48 H): 4 arbitrary units; Color (Listeria welshimeri 023; [4]): purple; Intensity (Listeria welshimeri 023; [4]): 2.3 arbitrary units; Color (Listeria welshimeri 023; [5]): purple; Intensity (Listeria welshimeri 023; [5]): 2.7 arbitrary units; Color (Listeria welshimeri 023; Tin chloride 50 mg/l, 24 H): orange; Intensity (Listeria welshimeri 023; Tin chloride 50 mg/l, 24 H): 3 arbitrary units; Color (Listeria welshimeri 023; Tin chloride 50 mg/l, 48 H): orange; Intensity (Listeria welshimeri 023; Tin chloride 50 mg/l, 48 H): 4 arbitrary units
